What was measured:
[1] = biological target: T1, human sphingosine-1-phosphate receptor 1 (S1P1) (Homo sapiens (Human), UniProt P21453); test: Inhibition of cAMP production (HTRF cAMP HiRange), S1P1 CHO-K1 cells; assay type: cell-based; details: for Emax: CHO-K1, efficacy (SPAN) normalized to fingolimod, read-out: hS1P1 cAMP SPAN; for hS1P1 cAMP pEC50: inhibition of cAMP production, S1P1 CHO-K1 cells
Summary of the method: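 CHO-K1 cells stably co-expressing human S1P1 (C-terminal Prolink tag) and EA-β-arrestin2 were grown in AssayComplete Media 6 at 37° C. and 5% CO2, plated, and incubated overnight. Agonist-driven inhibition of intracellular cAMP was read by TR-FRET with the HTRF cAMP HiRange kit on a PheraStar reader. Potency is pEC50, and efficacy (SPAN) is normalized to fingolimod.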
Target sequence in this assay (P21453 whole entry, looked up): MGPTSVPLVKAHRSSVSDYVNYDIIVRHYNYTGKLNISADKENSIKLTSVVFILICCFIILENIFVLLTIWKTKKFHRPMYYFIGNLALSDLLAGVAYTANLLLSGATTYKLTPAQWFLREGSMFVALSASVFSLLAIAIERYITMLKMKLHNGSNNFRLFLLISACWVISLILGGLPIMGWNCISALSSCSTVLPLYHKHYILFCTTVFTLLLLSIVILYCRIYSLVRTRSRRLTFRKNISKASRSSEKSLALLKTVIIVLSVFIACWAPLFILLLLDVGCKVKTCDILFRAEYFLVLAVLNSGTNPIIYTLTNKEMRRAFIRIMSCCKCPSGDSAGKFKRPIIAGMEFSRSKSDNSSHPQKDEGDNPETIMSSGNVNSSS

[2] = biological target: T1, human sphingosine-1-phosphate receptor 1 (S1P1); test: β-Arrestin2 recruitment assay (PathHunter), S1P1 CHO-K1 cells; assay type: cell-based; details: for Emax: CHO-K1, efficacy (SPAN) normalized to fingolimod, read-out: hS1P1 B-arrestin2 SPAN; for hS1P1 B-arrestin2 pEC50: β-arrestin2 recruitment, S1P1 CHO-K1 cells
Summary of the method: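 Enzyme-fragment complementation read-out: agonist-driven β-arrestin2 binding to ProLink-tagged human S1P1 in stable CHO-K1 cells restores β-galactosidase, measured 1 h at room temperature after a 60 min 37° C. compound incubation. Potency as pEC50, efficacy relative to fingolimod (SPAN).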
Target sequence in this assay (P21453 whole entry, looked up): as above
Target sequence in this assay (P32121 whole entry partner, looked up): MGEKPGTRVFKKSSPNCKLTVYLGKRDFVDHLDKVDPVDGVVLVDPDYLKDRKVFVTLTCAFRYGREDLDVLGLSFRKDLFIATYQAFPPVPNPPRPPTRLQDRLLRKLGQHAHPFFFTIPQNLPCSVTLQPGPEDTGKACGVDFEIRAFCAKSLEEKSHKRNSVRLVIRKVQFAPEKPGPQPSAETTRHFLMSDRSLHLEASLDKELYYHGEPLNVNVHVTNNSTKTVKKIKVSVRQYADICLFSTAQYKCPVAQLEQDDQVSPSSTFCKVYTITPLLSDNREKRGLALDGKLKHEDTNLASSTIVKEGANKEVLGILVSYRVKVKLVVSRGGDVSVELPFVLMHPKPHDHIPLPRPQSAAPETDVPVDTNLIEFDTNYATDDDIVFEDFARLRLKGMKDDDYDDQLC

| Emax [1] [%] | hS1P1 cAMP pEC50 [1] | Emax [2] [%] | hS1P1 B-arrestin2 pEC50 [2] | SMILES |
| --- | --- | --- | --- | --- |
| > 75 | <6.5 | > 75 | <5 | Cc1cccc(C)c1-c1noc(-c2ccc3c(c2)nnn3C(C)C)n1 [Compound 243, 3-(2,6-dimethylphenyl)-5-(1-isopropyl-1H-benzo[d][1,2,3]triazol-5-yl)-1,2,4-oxadiazole] |
| – | <6.5 | – | <5 | COc1ccccc1-c1nnc(-c2ccc3c(c2)nnn3C(C)C)o1 [Compound 35, 5-[5-(2-methoxyphenyl)-1,3,4-oxadiazol-2-yl]-1-(propan-2-yl)-1H-1,2,3-benzotriazole] |
| < 75 | <6.5 | < 75 | <5 | Cc1ccsc1-c1noc(-c2ccc3c(c2)nnn3CC2CC2)n1 [Compound 239, 1-(cyclopropylmethyl)-5-[3-(3-methylthiophen-2-yl)-1,2,4-oxadiazol-5-yl]-1H-1,2,3-benzotriazole] |
| < 75 | <6.5 | < 75 | <5 | COc1ccc(-c2nc(-c3ccc4c(c3)nnn4C3CCCC3)no2)cc1OC [Compound 275, 3-(1-cyclopentyl-1H-benzo[d][1,2,3]triazol-5-yl)-5-(3,4-dimethoxyphenyl)-1,2,4-oxadiazole] |
| > 75 | <6.5 | > 75 | <5 | CCC1(CC)CC(=O)c2cc(-c3nc(-c4ccccn4)no3)ccc2O1 [Compound 111, 2,2-diethyl-6-[3-(2-pyridyl)-1,2,4-oxadiazol-5-yl]chroman-4-one] |
| – | <6.5 | – | <5 | CCCn1nnc2cc(-c3nc(-c4ccc(C(F)(F)F)c(F)c4)no3)ccc21 [Compound 193, 5-{3-[3-fluoro-4-(trifluoromethyl)phenyl]-1,2,4-oxadiazol-5-yl}-1-propyl-1H-1,2,3-benzotriazole] |
| – | <6.5 | – | >5 | CC(C)n1ccc2cc(-c3noc(-c4ccccc4F)n3)ccc21 [Compound 387, 5-(2-fluorophenyl)-3-(1-isopropyl-1H-indol-5-yl)-1,2,4-oxadiazole] |
| – | >6.5 | – | >5 | CCC1(CC)CC(=O)c2cc(-c3nc(-c4ccnc(C(N)=O)c4)no3)ccc2O1 [Compound 555, 4-(5-(2,2-diethyl-4-oxochroman-6-yl)-1,2,4-oxadiazol-3-yl)picolinamide] |
| > 75 | <6.5 | > 75 | <5 | CC(C)n1nnc2cc(-c3nc4c(Br)cccc4o3)ccc21 [Compound 428, 4-bromo-2-(1-isopropylbenzotriazol-5-yl)-1,3-benzoxazole] |
| > 75 | >6.5 | > 75 | >5 | CC(C)Nc1ccc(-c2nnc(-c3ccc4[nH]ncc4c3)o2)cc1C#N [Compound 351, 5-[5-(1H-indazol-5-yl)-1,3,4-oxadiazol-2-yl]-2-[(propan-2-yl)amino]benzonitrile] |
| – | <6.5 | – | <5 | CCCCC1CC(=O)c2ccc(-c3nc(-c4cccnc4)no3)cc2O1 (centres unmarked) [Compound 633, 2-butyl-7-[3-(pyridin-3-yl)-1,2,4-oxadiazol-5-yl]-3,4-dihydro-2H-1-benzopyran-4-one] |
| > 75 | >6.5 | < 75 | >5 | Cc1ccc2oc(-c3ccc4c(c3)nnn4C(C)C)nc2c1 [Compound 419, 2-(1-isopropyl-1H-benzo[d][1,2,3]triazol-5-yl)-5-methylbenzo[d]oxazole] |
| > 75 | >6.5 | > 75 | >5 | Cc1ccccc1-c1noc(-c2ccc3c(c2)nnn3C2CCCC2)n1 [Compound 175, 1-cyclopentyl-5-[3-(2-methylphenyl)-1,2,4-oxadiazol-5-yl]-1H-1,2,3-benzotriazole] |
| – | >6.5 | – | >5 | Cc1nc2cc(-c3nnc(-c4ccc(NCC(F)F)c(C#N)c4)o3)ccc2[nH]1 [Compound 561, 2-[(2,2-difluoroethyl)amino]-5-[5-(2-methyl-1H-1,3-benzodiazol-5-yl)-1,3,4-oxadiazol-2-yl]benzonitrile] |
| – | <6.5 | – | <5 | O=C1CCc2cc(-c3nc(-c4cccnc4)no3)ccc2N1 [Compound 386, 6-[3-(pyridin-3-yl)-1,2,4-oxadiazol-5-yl]-1,2,3,4-tetrahydroquinolin-2-one] |
| – | >6.5 | – | >5 | COc1ccccc1-c1noc(-c2cnc3c(c2)nnn3C(C)C)n1 [Compound 383, 3-(2-methoxyphenyl)-5-[3-(propan-2-yl)-3H-[1,2,3]triazolo[4,5-b]pyridin-6-yl]-1,2,4-oxadiazole] |
| – | >6.5 | – | <5 | CCC1(CC)CC(=O)c2cc(-c3nc(-c4cc[nH]c4)no3)ccc2O1 [Compound 485, 6-(3-(1H-pyrrol-3-yl)-1,2,4-oxadiazol-5-yl)-2,2-diethylchroman-4-one] |
| – | <6.5 | – | <5 | CCC1(CC)CC(=O)c2cc(-c3nc(-c4cccnn4)no3)ccc2O1 [Compound 621, 2,2-diethyl-6-(3-(pyridazin-3-yl)-1,2,4-oxadiazol-5-yl)chroman-4-one] |
| – | >6.5 | – | >5 | CCC1(CC)CC(=O)c2cc(-c3ncc(-c4ccncc4)cn3)ccc2O1 [Compound 510, 2,2-diethyl-6-(5-(pyridin-4-yl)pyrimidin-2-yl)chroman-4-one] |
| – | <6.5 | – | <5 | Brc1ccccc1-c1nc(-c2ccc3c(c2)nnn3Cc2ccccn2)no1 [Compound 45, 5-(2-bromophenyl)-3-(1-(pyridin-2-ylmethyl)-1H-benzo[d][1,2,3]triazol-5-yl)-1,2,4-oxadiazole] |
| > 75 | >6.5 | > 75 | >5 | N#Cc1cc(-c2nc(-c3ccc4sc(N)nc4c3)no2)ccc1NCC1CC1 [Compound 440, 5-(3-(2-aminobenzo[d]thiazol-5-yl)-1,2,4-oxadiazol-5-yl)-2-((cyclopropylmethyl)amino)benzonitrile] |
| < 75 | <6.5 | < 75 | <5 | COc1cc(-c2nc(-c3ccc4c(c3)nnn4C(C)C)no2)ccn1 [Compound 116, 3-(1-isopropyl-1H-benzo[d][1,2,3]triazol-5-yl)-5-(2-methoxypyridin-4-yl)-1,2,4-oxadiazole] |
| < 75 | <6.5 | < 75 | <5 | CC(C)CCn1nnc2cc(-c3nc(-c4ccccc4)no3)ccc21 [Compound 271, 1-(3-methylbutyl)-5-(3-phenyl-1,2,4-oxadiazol-5-yl)-1H-1,2,3-benzotriazole] |
| < 75 | <6.5 | > 75 | <5 | COc1cccc(-c2nc(-c3ccc4c(c3)nnn4C(C)C)no2)c1 [Compound 299, 3-(1-isopropylbenzotriazol-5-yl)-5-(3-methoxyphenyl)-1,2,4-oxadiazole] |
| < 75 | <6.5 | < 75 | <5 | CC(=O)Nc1ccccc1-c1coc(-c2ccc3c(c2)nnn3C(C)C)n1 [Compound 458, N-(2-{2-[1-(propan-2-yl)-1H-1,2,3-benzotriazol-5-yl]-1,3-oxazol-4-yl}phenyl)acetamide] |
| < 75 | <6.5 | < 75 | <5 | COc1cccc(-c2noc(-c3ccc4c(c3)nnn4C3CCCC3)n2)n1 [Compound 124, 1-cyclopentyl-5-[3-(6-methoxypyridin-2-yl)-1,2,4-oxadiazol-5-yl]-1H-1,2,3-benzotriazole] |
| > 75 | >6.5 | > 75 | >5 | COc1ccccc1-c1nc(-c2ccc3c(c2)nnn3C(C)C)co1 [Compound 575, 5-[2-(2-methoxyphenyl)-1,3-oxazol-4-yl]-1-(propan-2-yl)-1H-1,2,3-benzotriazole] |
| – | >6.5 | – | >5 | CC(C)Oc1ccc(-c2nc(-c3ccc4c(c3)nnn4C(C)C)no2)cc1C(F)(F)F [Compound 246, 5-(4-isopropoxy-3-(trifluoromethyl)phenyl)-3-(1-isopropyl-1H-benzo[d][1,2,3]triazol-5-yl)-1,2,4-oxadiazole] |
| > 75 | <6.5 | < 75 | >5 | CCC1(CC)CC(=O)c2cc(-c3nc(-c4ccc(NC)cc4)no3)ccc2O1 [Compound 153, 2,2-diethyl-6-(3-(4-(methylamino)phenyl)-1,2,4-oxadiazol-5-yl)chroman-4-one] |
| – | >6.5 | – | >5 | CCC1(CC)CC(=O)c2cc(-c3nc(-c4cncc(C(N)=O)c4)no3)ccc2O1 [Compound 537, 5-(5-(2,2-diethyl-4-oxochroman-6-yl)-1,2,4-oxadiazol-3-yl)nicotinamide] |
